Data published in the NIST ThermoML archive (doi:10.1021/je700260f).
± gives the expanded uncertainty stated by the source.

Settings: 313.15 K, Liquid, Vibrating tube method

For `FC(C(F)(F)F)C(F)(F)F` [1,1,1,2,3,3,3-heptafluoropropane], the mass density (20571 kPa) was 1453 ± 1.6 kg/m3, the mass density (20603 kPa) was 1453 ± 1.6 kg/m3 and the mass density (20639 kPa) was 1453.2 ± 1.6 kg/m3. For the same compound, the mass density (20675 kPa) was 1453.5 ± 1.6 kg/m3, the mass density (20721 kPa) was 1453.6 ± 1.6 kg/m3 and the mass density (20757 kPa) was 1453.8 ± 1.6 kg/m3. It also gave a mass density (20799 kPa) of 1454.1 ± 1.6 kg/m3, a mass density (20826 kPa) of 1454.2 ± 1.6 kg/m3 and a mass density (20865 kPa) of 1454.4 ± 1.6 kg/m3. It also gave a mass density (20902 kPa) of 1454.4 ± 1.6 kg/m3, a mass density (20933 kPa) of 1454.7 ± 1.6 kg/m3 and a mass density (20969 kPa) of 1454.7 ± 1.6 kg/m3. For the same compound, the mass density (21003 kPa) was 1454.9 ± 1.6 kg/m3, the mass density (21049 kPa) was 1455 ± 1.6 kg/m3 and the mass density (21080 kPa) was 1455.2 ± 1.6 kg/m3. For the same compound, the mass density (21213 kPa) was 1455.8 ± 1.6 kg/m3, the mass density (21240 kPa) was 1455.9 ± 1.6 kg/m3 and the mass density (21275 kPa) was 1456 ± 1.6 kg/m3. For the same compound, the mass density (21319 kPa) was 1456.3 ± 1.6 kg/m3, the mass density (21355 kPa) was 1456.5 ± 1.6 kg/m3 and the mass density (21405 kPa) was 1456.7 ± 1.6 kg/m3. For the same compound, the mass density (21435 kPa) was 1456.8 ± 1.6 kg/m3, the mass density (21466 kPa) was 1456.9 ± 1.6 kg/m3 and the mass density (21512 kPa) was 1457.1 ± 1.6 kg/m3. The mass density (21547 kPa) was 1457.2 ± 1.6 kg/m3, the mass density (21593 kPa) was 1457.5 ± 1.6 kg/m3 and the mass density (21628 kPa) was 1457.6 ± 1.6 kg/m3. For the same compound, the mass density (21665 kPa) was 1457.8 ± 1.6 kg/m3, the mass density (21700 kPa) was 1457.8 ± 1.6 kg/m3 and the mass density (21742 kPa) was 1458 ± 1.6 kg/m3. For the same compound, the mass density (21776 kPa) was 1458.2 ± 1.6 kg/m3, the mass density (21813 kPa) was 1458.3 ± 1.6 kg/m3 and the mass density (21844 kPa) was 1458.5 ± 1.6 kg/m3. It also gave a mass density (21885 kPa) of 1458.7 ± 1.6 kg/m3, a mass density (21927 kPa) of 1458.9 ± 1.6 kg/m3 and a mass density (21953 kPa) of 1459 ± 1.6 kg/m3. For the same compound, the mass density (21990 kPa) was 1459.2 ± 1.6 kg/m3, the mass density (22027 kPa) was 1459.2 ± 1.6 kg/m3 and the mass density (22064 kPa) was 1459.5 ± 1.6 kg/m3. For the same compound, the mass density (22100 kPa) was 1459.6 ± 1.6 kg/m3, the mass density (22131 kPa) was 1459.8 ± 1.6 kg/m3 and the mass density (22172 kPa) was 1459.9 ± 1.6 kg/m3. For the same compound, the mass density (22203 kPa) was 1460.1 ± 1.6 kg/m3, the mass density (22245 kPa) was 1460.1 ± 1.6 kg/m3 and the mass density (22276 kPa) was 1460.2 ± 1.6 kg/m3. It also gave a mass density (22312 kPa) of 1460.6 ± 1.6 kg/m3, a mass density (22349 kPa) of 1460.5 ± 1.6 kg/m3 and a mass density (22385 kPa) of 1460.8 ± 1.6 kg/m3. For the same compound, the mass density (22411 kPa) was 1460.8 ± 1.6 kg/m3, the mass density (22447 kPa) was 1461 ± 1.6 kg/m3 and the mass density (22489 kPa) was 1461.3 ± 1.6 kg/m3. It also gave a mass density (22532 kPa) of 1461.4 ± 1.6 kg/m3, a mass density (22579 kPa) of 1461.6 ± 1.6 kg/m3 and a mass density (22611 kPa) of 1461.7 ± 1.6 kg/m3. It also gave a mass density (22653 kPa) of 1461.9 ± 1.6 kg/m3, a mass density (22684 kPa) of 1462.2 ± 1.6 kg/m3 and a mass density (22722 kPa) of 1462.2 ± 1.6 kg/m3. The mass density (22758 kPa) was 1462.5 ± 1.6 kg/m3, the mass density (22796 kPa) was 1462.5 ± 1.6 kg/m3 and the mass density (22828 kPa) was 1462.7 ± 1.6 kg/m3. The mass density (22876 kPa) was 1462.9 ± 1.6 kg/m3, the mass density (22922 kPa) was 1463.1 ± 1.6 kg/m3 and the mass density (22954 kPa) was 1463.3 ± 1.6 kg/m3. The mass density (22986 kPa) was 1463.2 ± 1.6 kg/m3, the mass density (23028 kPa) was 1463.7 ± 1.6 kg/m3 and the mass density (23054 kPa) was 1463.7 ± 1.6 kg/m3. The mass density (23096 kPa) was 1463.7 ± 1.6 kg/m3, the mass density (23132 kPa) was 1464 ± 1.6 kg/m3 and the mass density (23180 kPa) was 1464.2 ± 1.6 kg/m3. It also gave a mass density (23217 kPa) of 1464.3 ± 1.6 kg/m3, a mass density (23384 kPa) of 1465 ± 1.6 kg/m3 and a mass density (23422 kPa) of 1465.2 ± 1.6 kg/m3. It also gave a mass density (23463 kPa) of 1465.3 ± 1.6 kg/m3, a mass density (23511 kPa) of 1465.4 ± 1.6 kg/m3 and a mass density (23548 kPa) of 1465.7 ± 1.6 kg/m3. It also gave a mass density (23585 kPa) of 1465.8 ± 1.6 kg/m3, a mass density (23623 kPa) of 1466 ± 1.6 kg/m3 and a mass density (23672 kPa) of 1466.2 ± 1.6 kg/m3. For the same compound, the mass density (23710 kPa) was 1466.2 ± 1.6 kg/m3, the mass density (23760 kPa) was 1466.5 ± 1.6 kg/m3 and the mass density (23805 kPa) was 1466.6 ± 1.6 kg/m3. For the same compound, the mass density (23840 kPa) was 1466.9 ± 1.6 kg/m3, the mass density (23893 kPa) was 1467 ± 1.6 kg/m3 and the mass density (23939 kPa) was 1467.2 ± 1.6 kg/m3. For the same compound, the mass density (23980 kPa) was 1467.2 ± 1.6 kg/m3, the mass density (24015 kPa) was 1467.5 ± 1.6 kg/m3 and the mass density (24073 kPa) was 1467.7 ± 1.6 kg/m3. For the same compound, the mass density (24121 kPa) was 1467.8 ± 1.6 kg/m3, the mass density (24163 kPa) was 1468.1 ± 1.6 kg/m3 and the mass density (24204 kPa) was 1468.4 ± 1.6 kg/m3. It also gave a mass density (24258 kPa) of 1468.6 ± 1.6 kg/m3, a mass density (24299 kPa) of 1468.7 ± 1.6 kg/m3 and a mass density (24341 kPa) of 1468.9 ± 1.6 kg/m3. It also gave a mass density (24400 kPa) of 1469.2 ± 1.6 kg/m3, a mass density (24441 kPa) of 1469.3 ± 1.6 kg/m3 and a mass density (24471 kPa) of 1469.4 ± 1.6 kg/m3. It also gave a mass density (24517 kPa) of 1469.5 ± 1.6 kg/m3, a mass density (24552 kPa) of 1469.6 ± 1.6 kg/m3 and a mass density (24586 kPa) of 1469.7 ± 1.6 kg/m3. For the same compound, the mass density (24643 kPa) was 1470 ± 1.6 kg/m3, the mass density (24690 kPa) was 1470.3 ± 1.6 kg/m3 and the mass density (24731 kPa) was 1470.4 ± 1.6 kg/m3. It also gave a mass density (24772 kPa) of 1470.6 ± 1.6 kg/m3.
